≈ marks a conversion by molar mass, not a printed value. Where two headings read alike, the source gives them in different places.
Key:
[1] = Aqueous solubility of Drug A; type: physicochemical
[2] = Plasma half-life of Drug A; type: in vivo
[3] = Single-dose plasma Drug A concentration vs. time curve fitted to 2-compartment PK model; type: in vivo, Human
Method: Pharmacokinetic (PK) constants were derived by fitting this curve to a 2-compartment PK model, assuming a small intestinal transit time of 4 hr, and a gastric emptying time of 15 min.

[4] = 120 mg Drug A, fitted 2-compartment model

aqueous solubility [1]: about 0.04 microgm/ml
solubility ([1]; water (aqueous), accurate measurements, crystalline): ~0.01 µg/mL (≈ 0.0167 µM)
solubility ([1]; water, read-out: solubility in water): < 1 µg/mL
half-life ([2]; read-out: additional long terminal elimination half-life): 100 to 200 h
half-life ([2]; read-out: effective plasma terminal half-life (t1/2)): 30 to 70 h
Absorption Ka [3, 4]: 2.27 h⁻¹
K12 [3, 4]: 0.017 h⁻¹
K21 [3, 4]: 0.002 h⁻¹
Kel (Elimination Rate Constant) ([3]; calculated from Cl/Vd): 0.042 h⁻¹
clearance ([3]; human, plasma, oral, 120 mg, read-out: Clearance (Cl) (converted)): 218 mL/min
Vd ([3]; human, plasma, oral, 120 mg, read-out: Volume of distribution (Vd)): 174 L
SMILES: CCOC(=O)N1c2ccc(C(F)(F)F)cc2[C@@H](N(Cc2cc(C(F)(F)F)cc(C(F)(F)F)c2)C(=O)OC)C[C@H]1CC [Drug A, [2R,4S] 4-[(3,5-bis-trifluoromethyl-benzyl)-methoxycarbonyl-amino]-2-ethyl-6-trifluoromethyl-3,4-dihydro-2H-quinoline-1-carboxylic acid ethyl ester]
